{"source": "patent US8753673B2", "about": "“Liposome composition for delivery of a therapeutic agent to eyes” (Taiwan Liposome Co. Ltd., priority 2006, dated 2014)", "key": {"[1]": {"assay": "Single-photon emission computed tomography (SPECT) imaging of unilateral-CNV rats", "format": "in vivo, Brown Norway (BN) pigmented rats", "conditions": "3, 24 and 48 hours after i.v. 250 μCi", "experimental": "(§1) In the process of monitoring the behavior of these animals, 2 to 3 out of the 10 rats were unable to walk straight. This abnormal behavior might be related to vision loss of the right eye as the result of laser photocoagulation. There were no other noticeable side effects observed in these rats.\nThe SPECT imaging was carried out at 3, 24, and 48 hours after the injection of 250 μCi of either In^111-DTPA or In^111 encapsulated liposome. […] The center field of view was 25.4 cm^2 and a single energy centered window was used at […], with a width of 20%. A sequence of scans ([…]×6) was obtained over a period of 15 min. Images were reconstructed in a 128×128 (pixels) format from data with 32 projections distributed over 180° around the rat and a 40 s scan for each projection. The projections of each experiment were processed by reconstruction using filtered back projection, with a low-pass Butterworth filter of order 22.4 and cutoff frequency of 0.43. Each transverse image was reconstructed in a 128×128 array with a pixel size of 1.9×1.9 mm and a zoom of 2.0×.\nThe experiment determines the biodistribution of In^111, a small molecular marker and In^111-encapsulated liposome, a lipid nano-particle in an experimental CNV model. Ten unilateral CNV rats were randomly divided into two groups with 4 and 6 rats, respectively. […]"}, "[2]": {"assay": "Bio-distribution of radioactivity in normal and CNV eyes of unilateral-CNV rats (γ scintillation counting after perfusion)", "format": "in vivo, Brown Norway (BN) pigmented rats", "conditions": "for specific radioactivity, CNV eye: CNV (right) eye; for specific radioactivity, CNV eye / specific radioactivity, normal eye: i.v. 250 μCi, means ± s.d.; for specific radioactivity, normal eye: normal (left) eye", "experimental": "as §1\nAfter the SPECT, all rats were sacrificed and perfused with normal saline containing 2 mM EDTA. Animals were dissected to isolate both normal (left) and CNV (right) eyes. The isolated eyes were weighted and radioactivity associated with the eyes was counted by a γ scintillation counter (Cobra II Autogamma, Packed, USA). The uptake of radiotracer in the eyes or other tissues was expressed in counts per minute (cpm) with decay correction and was normalized as percent of injection dose per gram tissue (% ID/g).\nThe experiment determines the biodistribution of In^111, a small molecular marker and In^111-encapsulated liposome, a lipid nano-particle in an experimental CNV model. Ten unilateral CNV rats were randomly divided into two groups with 4 and 6 rats, respectively. Group 1 received 250 μCi of In^111-DTPA and group 2 received 250 μCi of In^111-encapsulated liposome by intravenous injection."}, "[3]": {"assay": "Fluorescein angiography (FAG) and visual observation of eyes in unilateral-CNV rats after i.v. injection", "conditions": "normal and CNV eyes, visual observation up to 24 hours", "protocol": "Brown Norway (BN) pigmented rats, weighing between 200 and 250 gram, were anesthetized with intramuscular injection of 0.15 ml/kg of an equal-volume mixture of 2% lidocaine (Xylocalne; Astra, Astra Södertalje, Sweden) and 50 mg/mL ketamine (Ketalar; Parke-Davis, Morris Plains, N.J.). After anesthetizing, the right pupils were dilated with 1% tropicamide (1% Mydriacyl; Alcon Laboratories, Watford, UK). A small piece of transparent sheet (3M, Minneapolis, Minn.) approximately 3 mm in diameter was attached to the cornea by sodium hyaluronidase (Healon; Pharmacia and Upjohn, Inc., Kalamazoo, Mich.) to serve as a contact lens. Krypton laser (Novus Omni; Coherent, Palo Alto, Calif.) irradiation was delivered through a slit lamp (Carl Zeiss, Oberkochen, Germany). Laser parameters used were as follows: spot size of 100 mm, power of 120 to 160 mW, and exposure duration of 0.1 second. […] CNV was evaluated on day 14 by opthalmoscopy, fundus photography, and conventional fluorescein angiography (FAG) modified from (DiLoreto D, Grover D A, Del Cerro C. (1994) Curr Eye Res. 13, 157-61).\nFluorescein sodium (10%; 0.1 ml/kg; Fluorescite™; Alcon, Fort Worth, Tex.) was injected through the tail vein of the anesthetized rats 14 days after laser photocoagulation. The CNV lesions were recorded with a digital fundus camera (Retinal Angiography; Heidelberg Engineering, Heidelberg, Germany). […]"}}, "data": [{"compound": "O=C([O-])CN(CCN(CC(=O)[O-])CC(=O)[O-])CCN(CC(=O)[O-])CC(=O)[O-].[111In+3].[H+].[H+]", "note": "[In^111-DTPA]", "values": [{"measurement": "accumulation of radioactivity in eyes on SPECT images", "setting": "[1]", "result": "did not show any In^111 accumulation in both normal and CNV eyes even at 3 hours"}, {"measurement": "difference in specific radioactivity between the normal and CNV eyes", "setting": "[2]; 24 and 48 hours post-injection", "result": "no difference"}, {"measurement": "specific radioactivity, CNV eye", "setting": "[2]; 24 hours post injection", "result": "0.14 ± 0.09", "unit": "% ID/g"}, {"measurement": "specific radioactivity, CNV eye", "setting": "[2]; 48 hours post injection", "result": "0.13 ± 0.05", "unit": "% ID/g"}, {"measurement": "specific radioactivity, normal eye", "setting": "[2]; 24 hours post injection", "result": "0.16 ± 0.04", "unit": "% ID/g"}, {"measurement": "specific radioactivity, normal eye", "setting": "[2]; 48 hours post injection", "result": "0.14 ± 0.06", "unit": "% ID/g"}]}, {"compound": "O=C1OC2(c3ccc(O)cc3Oc3cc(O)ccc32)c2ccccc21", "note": "[fluorescein sodium, Fluorescein sodium]", "values": [{"measurement": "visual appearance (colour) of the eyes after i.v. administration", "setting": "[3]", "result": "greenish color quickly disappeared within an hour"}]}]}
